The text below walks through data of PMC11591947, “Peroxidase-like Nanoparticles of Noble Metals Stimulate Increasing Sensitivity of Flavocytochrome b2-Based L-Lactate Biosensors” (Biosensors, 2024).

The assay addresses T1, Flavocytochrome b2 (Fcb2, EC 1.1.2.3) (Ogataea polymorpha, UniProt A0A9P8PNE1).
T1 construct: gene OGATHE_001663
Description: chronoamperometry on Fcb2/graphite electrode biosensor. Format: biochemical. The note with it: immobilised enzyme (0.3 units, Nafion film, no nanoparticles); 1 mM PMS; +200 mV vs Ag/AgCl; apparent value of bioelectrode.

T1 sequence (A0A9P8PNE1 55-553): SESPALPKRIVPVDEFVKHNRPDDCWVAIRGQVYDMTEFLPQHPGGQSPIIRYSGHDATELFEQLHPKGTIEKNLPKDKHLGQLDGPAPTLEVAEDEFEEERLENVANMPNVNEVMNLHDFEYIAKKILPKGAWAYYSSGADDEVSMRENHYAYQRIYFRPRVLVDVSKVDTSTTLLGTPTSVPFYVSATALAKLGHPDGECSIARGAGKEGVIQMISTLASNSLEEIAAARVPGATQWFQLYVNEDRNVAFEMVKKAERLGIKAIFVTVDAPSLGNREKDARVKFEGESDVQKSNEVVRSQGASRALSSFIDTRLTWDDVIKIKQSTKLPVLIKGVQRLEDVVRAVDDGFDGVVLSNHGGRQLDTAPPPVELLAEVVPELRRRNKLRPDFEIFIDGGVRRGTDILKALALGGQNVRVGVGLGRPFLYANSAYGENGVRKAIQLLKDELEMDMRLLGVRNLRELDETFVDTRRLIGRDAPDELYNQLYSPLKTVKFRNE

Consider `C[C@H](O)C(=O)O` [L-lactate], for which the “KM^app” value is “Calibration curves illustrating the current dependence on the L-lactate concentration for the ABS”.
